Source: paper PMC11053168, “Agonist-selective activation of individual G-proteins by muscarinic receptors” (Scientific Reports, 2024)
Where two headings read alike, the source gives them in different places.

What was measured:
M5 muscarinic receptor = target: T1, M5 muscarinic receptor (Homo sapiens, UniProt P08912); experiment: [3H]NMS competition binding, membranes from CHO cells expressing M5
T1 construct: membranes
T1 sequence (P08912 1-532): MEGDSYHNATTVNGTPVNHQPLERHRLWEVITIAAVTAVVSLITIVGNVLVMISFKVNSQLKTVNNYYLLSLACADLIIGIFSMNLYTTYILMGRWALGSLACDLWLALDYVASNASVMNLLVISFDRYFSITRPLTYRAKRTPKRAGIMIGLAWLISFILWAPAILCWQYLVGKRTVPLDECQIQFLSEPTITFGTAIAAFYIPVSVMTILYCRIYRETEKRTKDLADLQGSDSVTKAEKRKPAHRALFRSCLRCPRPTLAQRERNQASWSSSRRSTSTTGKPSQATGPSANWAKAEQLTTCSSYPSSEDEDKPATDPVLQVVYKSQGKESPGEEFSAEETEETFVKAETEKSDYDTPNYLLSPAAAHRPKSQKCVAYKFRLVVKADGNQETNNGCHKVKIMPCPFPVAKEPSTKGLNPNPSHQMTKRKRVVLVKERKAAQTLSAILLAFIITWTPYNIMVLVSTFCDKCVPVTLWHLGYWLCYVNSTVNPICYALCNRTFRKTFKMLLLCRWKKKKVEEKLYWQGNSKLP
Experimental: Cells were cultured as described previously by Randakova et al.[33]. […] The medium was supplemented with 5 mM butyrate for the last 24 h of culture to increase receptor expression. Cells were washed with (phosphate-buffered saline (PBS), mechanically harvested by scraper and centrifugated 1000 × g for 5 min. Cell pellets were kept at − 80 °C.
Membranes were prepared as described previously by Randakova et al.[33]. Cells harvested from twenty 100 mm petri dishes (CHO) or 30 ml of cell suspension (Sf9) were suspended in 20 ml of ice-cold incubation medium (100 mM NaCl, 20 mM Na-HEPES, 10 mM MgCl2, pH 7.4) supplemented with 10 mM EDTA and homogenized on ice by two 30‐s strokes using a Polytron homogenizer (Ultra-Turrax; Janke & Kunkel GmbH & Co. KG, IKA-Labortechnik, Staufen, Germany) with a 30 s pause between strokes. Cell homogenates were centrifuged for 5 min at 1000×g to remove whole cells and cell nuclei. The resulting supernatants were centrifuged for 30 min at 30,000×g. Pellets were suspended in a fresh incubation medium, incubated on ice for 30 min, and centrifuged again. The resulting membrane pellets were kept at − 80 °C until assayed within 10 weeks.
Non-specific binding was determined in the presence of 10 μM unlabelled atropine. Incubations were terminated by filtration through filtration plates multiscreen 96 well Harvest (Merck Millipore) using a Brandel cell harvester (Brandel, Gaithersburg, MD, USA). Filtration plates were dried in a microwave oven, and then 40 μl of liquid scintillator Rotiscint eco plus (Roth) was added. The filtration plates were counted in the Microbeta scintillation counter (PerkinElmer). […] The inhibition constant KI was calculated according to Eq. (2).
Inhibition constants KI were calculated according to Eq. (2).2 KI=IC50/1+D/KD where IC50 is calculated according to Eq.

M1 receptor = target: T2, M1 receptor (Homo sapiens, UniProt P11229); experiment: BRET real-time monitoring of Gq/11 activation via M1 in HEK293T/17 cells; type: cell-based; set-up: expressed in transfected cells; host or cells: HEK293T/17 cells, transient transfection; settings: for Activation of Gαq/11 types: saturating concentration (100 μM; 1 mM for JB-12-2, JB-13-1); for Activation magnitude at G11, % of CBC / Activation magnitude at G15, % of CBC / Activation magnitude at Gq, % of CBC / Activation magnitude at Gα14, % of CBC: 100 μM
T2 sequence (P11229 1-460): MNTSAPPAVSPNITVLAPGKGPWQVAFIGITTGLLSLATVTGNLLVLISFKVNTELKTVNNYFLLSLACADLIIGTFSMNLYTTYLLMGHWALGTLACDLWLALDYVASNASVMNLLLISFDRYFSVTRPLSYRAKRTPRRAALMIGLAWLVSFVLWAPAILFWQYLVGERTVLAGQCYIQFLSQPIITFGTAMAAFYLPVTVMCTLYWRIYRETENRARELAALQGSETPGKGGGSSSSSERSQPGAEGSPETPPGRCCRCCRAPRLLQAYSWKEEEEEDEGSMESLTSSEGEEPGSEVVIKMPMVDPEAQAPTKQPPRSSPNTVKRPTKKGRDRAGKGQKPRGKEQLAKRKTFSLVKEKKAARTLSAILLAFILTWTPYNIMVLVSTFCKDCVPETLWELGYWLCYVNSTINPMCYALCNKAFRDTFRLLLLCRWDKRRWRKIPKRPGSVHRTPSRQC
Experimental: HE/K293T17 cells were obtained from The Global Bioresource Center ATCC (Manassas, VA, USA). Cells were grown in 100 mm petri dishes in Dulbecco’s modified Eagle’s medium (DMEM) supplemented with 10% fetal bovine serum (FBS), MEM non-essential amino acids, 1 mM sodium pyruvate, and antibiotics (100 units/ml penicillin and 100 μg/ml streptomycin) at 37 °C in a humidified incubator containing 5% CO2[41]. Transfection was performed according to Masuho et al.[41]. […] Gα14 subunit was co-transfected with Ric-8A chaperone (0.21 μg). Cells were cotransfected with a pcDNA3.1 construct encoding the catalytic subunit of pertussis toxin (PTX-S1) (0.21 μg) and constructs encoding Gα15, Gα14, Gα11, Gαq to ensure that the small BRET signals were not contaminated by the possible recruitment of endogenous Gαi/o proteins. The empty vector pcDNA3.1 was used to normalize the amount of DNA in each transfection.
To examine the activation of G-protein signalling in live cells, agonist-dependent cellular measurements of BRET between Venus-Gβ1γ2 and masGRK3ct-Nluc were performed as described by Masuho et al.[41]. […] Cells were harvested by centrifugation at 500×g for 5 min and were resuspended in BRET buffer. About 50,000 to 100,000 cells per well were distributed in 96-well flat-bottomed white microplates (Greiner Bio-One) in a volume of 25 µl. […] BRET measurements were made with a microplate reader (POLARstar Omega, BMG Labtech) equipped with two emission photomultiplier tubes, which enabled the detection of two emissions simultaneously with the highest possible resolution of 20 ms per data point. All measurements were performed at room temperature. […] The average baseline value (basal BRET ratio) recorded before stimulation of cells with an agonist was subtracted from the experimental BRET signal values to obtain the ΔBRET ratio.

| Ki (M5 muscarinic receptor; M5, competition with [3H]NMS, mean ± SD, three experiments, read-out: Binding affinity, negative logarithm of Ki (converted)) | SMILES | Ki (M5 muscarinic receptor) | Activation of Gαq/11 types (M1 receptor) | Activation magnitude at G11, % of CBC (M1 receptor) | Activation magnitude at G15, % of CBC (M1 receptor) | Activation magnitude at Gq, % of CBC (M1 receptor) | Activation magnitude at Gα14, % of CBC (M1 receptor) |
| --- | --- | --- | --- | --- | --- | --- | --- |
|  | c1csc(C[N+]23CCC(CC2)CC3)c1 [JB-8A] | 9.33 µM | did not activate any Gαq/11 type |  |  |  |  |
|  | C[N+]1(Cc2cccs2)CCOCC1 [JB-12-2] | 112 µM | activated all Gαq/11 types |  |  |  |  |
| 468 µM | COC(=O)C1=CCCN(Cc2cccs2)C1 [JB-13-1] |  | did not activate any Gαq/11 type |  |  |  |  |
|  | C[N+]1(Cc2cccs2)CC=CCC1 (centres unmarked) [JR-6, 1-methyl-1-[(thiophen-2-yl)methyl]-1,2,3,6-tetra hydropyridin-1-ium] |  |  | approximately 50% | approximately 50% | approximately 50% | approx. 10% |
|  | C[N+]1(Cc2ccc(Cl)s2)CC=CCC1 (centres unmarked) [PN-152, 1-[(5-chlorothiophen-2-yl)methyl]-1-methyl-1,2,3,6-tetrahydropyridin-1-ium] |  |  | approx. 30% | approx. 30% | approx. 30% | did not activate |
